Measurements as given in patent US10806736B2 (priority 2018, dated 2020).
“Also recorded” adds a separate entry of the source.

Experiments:
p53 = p53 protein expression by western blotting in macrophages infected with M. tuberculosis; type: cell-based; conditions: rat BMDMs infected with M. tuberculosis H37Ra (one bacterium per cell); 10 μM; compared to Nutlin-3α; β-actin inner control
Excerpt: It is confirmed whether p53 is expressed, when a cell is infected with M. tuberculosis, by subjecting the cell to the compound (K279-1558). Also, in order to analyze the role of p53 expression, the effect of p53 expression is confirmed from macrophages infected with M. tuberculosis. The cells were infected with avirulent M. tuberculosis (Mycobacterium tuberculosis H37Ra) in a ratio of one bacterium per cell by using bone marrow-derived macrophages (BMDMs), which is a rat-derived macrophage, and then the cells were subjected to Nutlin-3α and the compound (K279-1558) in a concentration of 10 μM. Thereafter, the number of M. tuberculosis surviving in the cells was measured.

[1] = test system: Mycobacterium tuberculosis H37Ra; type: cell-based; conditions: 10 μM; after 24 hours

With `CCC(SC1=Nc2ccccc2C2=NC(CC(=O)NCCc3ccccc3)C(=O)N12)C(=O)NCc1ccc(C)cc1` (stereo not drawn) [K279-1558] the “p53 activity / degree of p53 protein expression (western blotting)” value (p53) was “remarkably higher; also recorded: increases remarkably” and the “number of M. tuberculosis surviving in macrophages” value [1] was “dropped sharply; also recorded: decreased sharply”.
In the case of `COc1ccc(C2=N[C@@H](c3ccc(Cl)cc3)[C@@H](c3ccc(Cl)cc3)N2C(=O)N2CCNC(=O)C2)c(OC(C)C)c1` [Nutlin-3α, reference compound], the “number of M. tuberculosis surviving in macrophages” value [1] is reported as “decreased sharply”.
